Assay results from US20250059171A1 (Hoffmann-La Roche Inc., priority 2021, published 2025).

Columns and labels:
SARS-CoV-2 3CLpro = SARS-CoV-2 3CLpro (Severe acute respiratory syndrome coronavirus 2, UniProt P0DTD1); experiment: biochemical
SARS-CoV 3CLpro = SARS-CoV 3CLpro (Severe acute respiratory syndrome coronavirus, UniProt P0C6X7); experiment: biochemical
HCoV-229E 3CLpro = HCoV-229E 3CLpro (Human coronavirus 229E, UniProt P0C6X1); experiment: HCoV-229E 3CLpro inhibition assay (FRET); assay type: biochemical
MERS-CoV 3CLpro = MERS-CoV 3CLpro (Middle East respiratory syndrome-related coronavirus, UniProt K9N7C7); experiment: biochemical
MERS-CoV 3CLpro, sequence (K9N7C7 3248-3553): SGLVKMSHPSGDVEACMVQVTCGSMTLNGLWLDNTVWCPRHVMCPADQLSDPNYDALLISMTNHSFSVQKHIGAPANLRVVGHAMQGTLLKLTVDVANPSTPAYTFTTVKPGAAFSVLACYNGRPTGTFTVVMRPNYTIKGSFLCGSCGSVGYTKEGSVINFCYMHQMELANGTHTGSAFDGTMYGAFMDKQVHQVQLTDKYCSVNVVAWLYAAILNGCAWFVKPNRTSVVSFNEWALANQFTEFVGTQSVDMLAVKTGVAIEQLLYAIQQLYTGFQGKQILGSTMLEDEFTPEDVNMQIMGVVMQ

HCoV-229E 3CLpro, sequence (P0C6X1 2966-3267): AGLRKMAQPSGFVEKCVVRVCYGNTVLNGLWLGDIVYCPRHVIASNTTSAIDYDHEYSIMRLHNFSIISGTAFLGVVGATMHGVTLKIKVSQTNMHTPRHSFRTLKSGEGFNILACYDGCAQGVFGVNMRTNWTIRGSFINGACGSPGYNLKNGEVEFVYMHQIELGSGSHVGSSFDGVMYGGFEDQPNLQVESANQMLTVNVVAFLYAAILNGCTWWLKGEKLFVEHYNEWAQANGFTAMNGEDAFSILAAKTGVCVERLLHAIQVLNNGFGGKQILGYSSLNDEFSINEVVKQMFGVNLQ

Compound	IC50 (SARS-CoV-2 3CLpro)	IC50 (SARS-CoV 3CLpro)	IC50 (HCoV-229E 3CLpro)	IC50 (MERS-CoV 3CLpro)
CC(C)(C)[C@H](NC(=O)[C@@H]1CC1(F)F)C(=O)N1C[C@H]2[C@@H]([C@H]1C(=O)NN(C[C@@H]1CCNC1=O)C(=O)[C@@H](F)Cl)C2(C)C [Example 95, (1S)—N-[(1S)-1-[(1R,2S,5S)-2-[[[(2S)-2-chloro-2-fluoro-acetyl]-[[(3S)-2-oxopyrrolidin-3-yl]methyl]amino]carbamoyl]-6,6-dimethyl-3-azabicyclo[3.1.0]hexane-3-carbonyl]-2,2-dimethyl-propyl]-2,2-difluoro-cyclopropanecarboxamide]	10 nM	14 nM	28 nM	71 nM
CC1(C)C[C@@H](C(=O)NN(C[C@@H]2CCNC2=O)C(=O)[C@H](F)Cl)N(C(=O)[C@@H](NC(=O)C2CC2)C(C)(C)C)C1 [Example 26, N-[(1S)-1-[(2S)-2-[[[(2R)-2-chloro-2-fluoro-acetyl]-[[(3S)-2-oxopyrrolidin-3-yl]methyl]amino]carbamoyl]-4,4-dimethyl-pyrrolidine-1-carbonyl]-2,2-dimethyl-propyl]cyclopropanecarboxamide]	12 nM	21 nM	28 nM	98 nM
CCC(CC)[C@H](NC(=O)C1CC1)C(=O)N1C[C@@H]2CCC[C@@H]2[C@H]1C(=O)NN(C[C@@H]1CCNC1=O)C(=O)[C@H](F)Cl [Example 135, N-[(1S)-1-[(3S,3aS,6aR)-3-[[[(2R)-2-chloro-2-fluoro-acetyl]-[[(3S)-2-oxopyrrolidin-3-yl]methyl]amino]carbamoyl]-3,3a,4,5,6,6a-hexahydro-1H-cyclopenta[c]pyrrole-2-carbonyl]-2-ethyl-butyl]cyclopropanecarboxamide]	11 nM	15 nM	39 nM	131 nM
CC[C@@H](C)[C@H](NC(=O)C1CC1)C(=O)N1C[C@H]2[C@@H]([C@H]1C(=O)NN(C[C@@H]1CCNC1=O)C(=O)[C@H](F)Cl)C2(C)C [Example 118, N-[(1S,2R)-1-[(1R,2S,5S)-2-[[[(2R)-2-chloro-2-fluoro-acetyl]-[[(3S)-2-oxopyrrolidin-3-yl]methyl]amino]carbamoyl]-6,6-dimethyl-3-azabicyclo[3.1.0]hexane-3-carbonyl]-2-methyl-butyl]cyclopropanecarboxamide]	13 nM	18 nM	27 nM	109 nM
CC[C@H](C)[C@H](NC(=O)C1(F)CC1)C(=O)N1C[C@H](C(F)(F)F)C[C@H]1C(=O)NN(C[C@@H]1CCNC1=O)C(=O)[C@H](F)Cl [Example 160, N-[(1S,2S)-1-[(2S,4R)-2-[[[(2R)-2-chloro-2-fluoro-acetyl]-[[(3S)-2-oxopyrrolidin-3-yl]methyl]amino]carbamoyl]-4-(trifluoromethyl)pyrrolidine-1-carbonyl]-2-methyl-butyl]-1-fluoro-cyclopropanecarboxamide]	13 nM	19 nM	24 nM	105 nM
CCC(C)(C)[C@H](NC(=O)C(F)F)C(=O)N1C[C@H]2[C@@H]([C@H]1C(=O)NN(C[C@@H]1CCNC1=O)C(=O)[C@@H](F)Cl)C2(C)C [Example 148, N-[(1S)-1-[(1R,2S,5S)-2-[[[(2S)-2-chloro-2-fluoro-acetyl]-[[(3S)-2-oxopyrrolidin-3-yl]methyl]amino]carbamoyl]-6,6-dimethyl-3-azabicyclo[3.1.0]hexane-3-carbonyl]-2,2-dimethyl-butyl]-2,2-difluoro-acetamide]	13 nM	20 nM	30 nM	130 nM
CC[C@H](C)[C@H](NC(=O)C(F)(F)F)C(=O)N1C[C@H]2[C@@H]([C@H]1C(=O)NN(C[C@@H]1CCNC1=O)C(=O)[C@H](F)Cl)C2(C)C [Example 63, N-[(1S,2S)-1-[(1R,2S,5S)-2-[[[(2R)-2-chloro-2-fluoro-acetyl]-[[(3S)-2-oxopyrrolidin-3-yl]methyl]amino]carbamoyl]-6,6-dimethyl-3-azabicyclo[3.1.0]hexane-3-carbonyl]-2-methyl-butyl]-2,2,2-trifluoro-acetamide]	9 nM	11 nM	18 nM	60 nM
CCC(C)(C)[C@H](NC(=O)C(F)F)C(=O)N1C[C@@H]2CCC[C@@H]2[C@H]1C(=O)NN(C[C@@H]1CCNC1=O)C(=O)[C@@H](F)Cl [Example 153, N-[(1S)-1-[(3S,3aS,6aR)-3-[[[(2S)-2-chloro-2-fluoro-acetyl]-[[(3S)-2-oxopyrrolidin-3-yl]methyl]amino]carbamoyl]-3,3a,4,5,6,6a-hexahydro-1H-cyclopenta[c]pyrrole-2-carbonyl]-2,2-dimethyl-butyl]-2,2-difluoro-acetamide]	12 nM	15 nM	43 nM	250 nM
CC1(C)[C@@H]2[C@@H](C(=O)NN(C[C@@H]3CCNC3=O)C(=O)[C@H](F)Cl)N(C(=O)COc3cc(F)cc(F)c3)C[C@@H]21 [Example 17, (1R,2S,5S)—N′-[(2R)-2-chloro-2-fluoro-acetyl]-3-[2-(3,5-difluorophenoxy)acetyl]-6,6-dimethyl-N′—[[(3S)-2-oxopyrrolidin-3-yl]methyl]-3-azabicyclo[3.1.0]hexane-2-carbohydrazide]	121 nM	429 nM	–	408 nM
O=C1NCC[C@H]1CN(NC(=O)[C@H]1[C@@H]2CCC[C@@H]2CN1C(=O)COc1cccc(F)c1)C(=O)[C@H](F)Cl [Example 88b, (3R,3aR,6aS)—N′-[(2R)-2-chloro-2-fluoro-acetyl]-2-[2-(3-fluorophenoxy)acetyl]-N′—[[(3S)-2-oxopyrrolidin-3-yl]methyl]-3,3a,4,5,6,6a-hexahydro-1H-cyclopenta[c]pyrrole-3-carbohydrazide]	> 10000 nM	–	–	155 nM
O=C1NCC[C@H]1CN(NC(=O)[C@H]1[C@@H]2CCC[C@@H]2CN1C(=O)COc1cc(F)cc(F)c1)C(=O)[C@H](F)Cl [Example 89b, (3R,3aR,6aS)—N′-[(2R)-2-chloro-2-fluoro-acetyl]-2-[2-(3,5-difluorophenoxy)acetyl]-N′—[[(3S)-2-oxopyrrolidin-3-yl]methyl]-3,3a,4,5,6,6a-hexahydro-1H-cyclopenta[c]pyrrole-3-carbohydrazide]	> 10000 nM	–	–	193 nM
O=C1NCC[C@H]1CN(NC(=O)[C@@H]1[C@H]2CCC[C@H]2CN1C(=O)COc1cccc(F)c1)C(=O)[C@H](F)Cl [Example 88a, (3S,3aS,6aR)—N′-[(2R)-2-chloro-2-fluoro-acetyl]-2-[2-(3-fluorophenoxy)acetyl]-N′—[[(3S)-2-oxopyrrolidin-3-yl]methyl]-3,3a,4,5,6,6a-hexahydro-1H-cyclopenta[c]pyrrole-3-carbohydrazide]	42 nM	–	–	249 nM
CC(C)(C)[C@H](NC(=O)C(F)(F)F)C(=O)N1C[C@H]2[C@@H]([C@H]1C(=O)NN(C[C@@H]1CCNC1=O)C(=O)CCl)C2(C)C [Example 18, N-[(1S)-1-[(1R,2S,5S)-2-[[(2-chloroacetyl)-[[(3S)-2-oxopyrrolidin-3-yl]methyl]amino]carbamoyl]-6,6-dimethyl-3-azabicyclo[3.1.0]hexane-3-carbonyl]-2,2-dimethyl-propyl]-2,2,2-trifluoro-acetamide]	–	429 nM	–	408 nM
CC[C@H](C)[C@H](NC(=O)C(F)(F)C(F)(F)F)C(=O)N1C[C@@H]2CCC[C@@H]2[C@H]1C(=O)NN(C[C@@H]1CCNC1=O)C(=O)[C@H](F)Cl [Example 50, N-[(1S,2S)-1-[(3S,3aS,6aR)-3-[[[(2R)-2-chloro-2-fluoro-acetyl]-[[(3S)-2-oxopyrrolidin-3-yl]methyl]amino]carbamoyl]-3,3a,4,5,6,6a-hexahydro-1H-cyclopenta[c]pyrrole-2-carbonyl]-2-methyl-butyl]-2,2,3,3,3-pentafluoro-propanamide]	–	8 nM	17 nM	42 nM
CC1(C)[C@@H]2[C@@H](C(=O)NN(C[C@@H]3CCNC3=O)C(=O)[C@H](F)Cl)N(C(=O)[C@H](CC34CC(C3)C4)NC(=O)C(F)(F)F)C[C@@H]21 [Example 65, N-[(1S)-1-(1-bicyclo[1.1.1]pentanylmethyl)-2-[(1R,2S,5S)-2-[[[(2R)-2-chloro-2-fluoro-acetyl]-[[(3S)-2-oxopyrrolidin-3-yl]methyl]amino]carbamoyl]-6,6-dimethyl-3-azabicyclo[3.1.0]hexan-3-yl]-2-oxo-ethyl]-2,2,2-trifluoro-acetamide]	–	–	25 nM	–
O=C1NCC[C@H]1CN(NC(=O)[C@@H]1[C@H]2CCC[C@H]2CN1C(=O)COc1cc(F)cc(F)c1)C(=O)[C@H](F)Cl [Example 89a, (3S,3aS,6aR)—N′-[(2R)-2-chloro-2-fluoro-acetyl]-2-[2-(3,5-difluorophenoxy)acetyl]-N′—[[(3S)-2-oxopyrrolidin-3-yl]methyl]-3,3a,4,5,6,6a-hexahydro-1H-cyclopenta[c]pyrrole-3-carbohydrazide]	51 nM	–	–	> 10000 nM
CC(C)(C)[C@H](NC(=O)C(F)(F)F)C(=O)N1CC2(CC2)C[C@H]1C(=O)NN(C[C@@H]1CCNC1=O)C(=O)[C@H](F)Cl [Example 6, N-[(1S)-1-[(6S)-6-[[[(2R)-2-chloro-2-fluoro-acetyl]-[[(3S)-2-oxopyrrolidin-3-yl]methyl]amino]carbamoyl]-5-azaspiro[2.4]heptane-5-carbonyl]-2,2-dimethyl-propyl]-2,2,2-trifluoro-acetamide]	–	14 nM	42 nM	109 nM
CCC(CC)[C@H](NC(=O)C(F)(F)F)C(=O)N1C[C@H]2[C@@H]([C@H]1C(=O)NN(C[C@@H]1CCNC1=O)C(=O)[C@H](F)Cl)C2(C)C [Example 84, N-[(1S)-1-[(1R,2S,5S)-2-[[[(2R)-2-chloro-2-fluoro-acetyl]-[[(3S)-2-oxopyrrolidin-3-yl]methyl]amino]carbamoyl]-6,6-dimethyl-3-azabicyclo[3.1.0]hexane-3-carbonyl]-2-ethyl-butyl]-2,2,2-trifluoro-acetamide]	–	14 nM	30 nM	87 nM
